Measured values reported in paper PMC8715907 (Chembiochem : a European journal of chemical biology, 2020).
pKd: −log10 of the molar value.

Experiments:
RECON (mRECON) = molecular target: T1, RECON (mRECON) (Mus musculus, UniProt Q8VC28); test: DRaCALA; type: binding
T1 sequence (Q8VC28 1-323): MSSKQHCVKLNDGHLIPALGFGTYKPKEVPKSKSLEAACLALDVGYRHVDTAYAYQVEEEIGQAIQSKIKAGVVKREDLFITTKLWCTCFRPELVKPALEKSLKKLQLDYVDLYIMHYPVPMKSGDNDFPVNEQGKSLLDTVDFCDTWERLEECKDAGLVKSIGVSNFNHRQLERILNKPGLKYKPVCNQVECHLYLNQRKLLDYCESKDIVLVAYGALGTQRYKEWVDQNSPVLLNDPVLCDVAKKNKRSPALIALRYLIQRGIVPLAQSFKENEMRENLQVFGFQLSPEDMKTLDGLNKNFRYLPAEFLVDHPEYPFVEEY

CnpB = CnpB (Mycobacterium tuberculosis, UniProt P71615); test: DRaCALA, serial dilutions of protein; type: binding
Chain of CnpB (P71615 whole entry): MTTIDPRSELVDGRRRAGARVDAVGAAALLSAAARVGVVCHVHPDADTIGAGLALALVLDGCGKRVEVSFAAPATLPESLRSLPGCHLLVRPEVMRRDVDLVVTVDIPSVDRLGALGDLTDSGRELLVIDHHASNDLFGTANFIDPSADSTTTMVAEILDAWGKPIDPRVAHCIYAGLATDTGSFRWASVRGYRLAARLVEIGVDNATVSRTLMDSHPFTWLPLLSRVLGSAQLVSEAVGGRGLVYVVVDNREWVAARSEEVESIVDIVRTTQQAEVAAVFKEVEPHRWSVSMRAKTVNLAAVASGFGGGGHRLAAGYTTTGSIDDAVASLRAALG

Nc1ncnc2c1ncn2[C@@H]1O[C@@H]2COP(=O)(O)O[C@H]3[C@@H](O)[C@H](n4cnc5c(N)ncnc54)O[C@@H]3COP(=O)(O)O[C@H]2[C@H]1O [3’3’-c-di-AMP]
pKd (RECON (mRECON)): 7.17
pKd (CnpB): ~5.52
